Measurements: ChEMBL document CHEMBL3132769, “Fragment growing to retain or alter the selectivity of anchored kinase hinge-binding fragments” (Medchemcomm, 2014)

Experiments:
[1] = biological target: T1, cGMP-dependent protein kinase 1 (Homo sapiens) (UniProt Q13976); assay: Inhibition of human full length PKG-1beta expressed in baculovirus assessed as substrate phosphorylation using fluorescence-labelled peptides as substrate at 0.06 uM after 90 mins by microfluidic peptide phosphorylation assay
T1 sequence (whole entry): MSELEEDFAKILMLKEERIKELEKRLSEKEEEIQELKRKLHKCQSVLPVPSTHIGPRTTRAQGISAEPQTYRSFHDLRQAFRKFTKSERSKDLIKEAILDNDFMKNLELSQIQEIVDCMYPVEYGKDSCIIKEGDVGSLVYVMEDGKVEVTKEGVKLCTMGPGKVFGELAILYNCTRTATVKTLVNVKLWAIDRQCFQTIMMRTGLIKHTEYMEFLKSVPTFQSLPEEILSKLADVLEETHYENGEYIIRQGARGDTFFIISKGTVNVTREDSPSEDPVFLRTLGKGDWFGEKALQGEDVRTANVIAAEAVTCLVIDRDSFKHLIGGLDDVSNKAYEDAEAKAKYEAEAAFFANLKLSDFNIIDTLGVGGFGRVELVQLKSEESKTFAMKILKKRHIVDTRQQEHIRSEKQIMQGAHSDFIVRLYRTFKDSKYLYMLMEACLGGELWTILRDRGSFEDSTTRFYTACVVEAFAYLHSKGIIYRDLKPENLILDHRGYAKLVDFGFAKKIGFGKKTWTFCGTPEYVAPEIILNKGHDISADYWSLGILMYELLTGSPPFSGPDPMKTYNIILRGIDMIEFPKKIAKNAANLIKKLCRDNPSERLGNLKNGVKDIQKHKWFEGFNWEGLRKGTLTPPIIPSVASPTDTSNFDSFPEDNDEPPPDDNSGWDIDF

[2] = biological target: Protein kinase C theta type (Homo sapiens) (UniProt Q04759); assay: Inhibition of human truncated PKC theta expressed in baculovirus assessed as substrate phosphorylation using fluorescence-labelled peptides as substrate at 70 uM after 90 mins by microfluidic peptide phosphorylation assay
Sequence of Protein kinase C theta type (Homo sapiens) (Q04759 whole entry, looked up, the tested form may be a part): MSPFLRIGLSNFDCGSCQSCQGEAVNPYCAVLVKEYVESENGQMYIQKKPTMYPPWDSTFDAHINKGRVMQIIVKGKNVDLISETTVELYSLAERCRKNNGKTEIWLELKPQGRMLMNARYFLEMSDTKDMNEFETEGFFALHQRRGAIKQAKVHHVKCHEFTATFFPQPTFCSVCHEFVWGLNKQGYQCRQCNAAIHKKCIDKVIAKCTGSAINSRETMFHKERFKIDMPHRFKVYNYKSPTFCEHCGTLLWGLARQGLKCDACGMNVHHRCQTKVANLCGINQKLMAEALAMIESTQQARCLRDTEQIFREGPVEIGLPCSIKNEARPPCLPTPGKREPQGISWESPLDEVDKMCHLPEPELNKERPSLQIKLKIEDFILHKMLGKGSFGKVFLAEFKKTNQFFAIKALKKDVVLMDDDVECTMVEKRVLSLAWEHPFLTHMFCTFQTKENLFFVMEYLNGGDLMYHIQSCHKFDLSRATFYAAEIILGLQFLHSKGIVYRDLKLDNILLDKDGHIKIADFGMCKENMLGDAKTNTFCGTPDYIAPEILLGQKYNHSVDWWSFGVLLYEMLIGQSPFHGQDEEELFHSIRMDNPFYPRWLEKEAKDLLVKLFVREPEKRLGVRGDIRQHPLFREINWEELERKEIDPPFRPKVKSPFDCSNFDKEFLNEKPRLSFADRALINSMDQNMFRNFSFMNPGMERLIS

[3] = biological target: Insulin-like growth factor 1 receptor (Homo sapiens) (UniProt P08069); assay: Inhibition of human IGF1R catalytic domain expressed in baculovirus assessed as substrate phosphorylation using fluorescence-labelled peptides as substrate at 0.2 uM after 90 mins by microfluidic peptide phosphorylation assay
[4] = biological target: T2, Serine/threonine-protein kinase Nek2 (Homo sapiens) (UniProt P51955); assay: Inhibition of human full length NEK2 expressed in baculovirus assessed as substrate phosphorylation using fluorescence-labelled peptides as substrate at 420 uM after 90 mins by microfluidic peptide phosphorylation assay
T2 sequence (whole entry): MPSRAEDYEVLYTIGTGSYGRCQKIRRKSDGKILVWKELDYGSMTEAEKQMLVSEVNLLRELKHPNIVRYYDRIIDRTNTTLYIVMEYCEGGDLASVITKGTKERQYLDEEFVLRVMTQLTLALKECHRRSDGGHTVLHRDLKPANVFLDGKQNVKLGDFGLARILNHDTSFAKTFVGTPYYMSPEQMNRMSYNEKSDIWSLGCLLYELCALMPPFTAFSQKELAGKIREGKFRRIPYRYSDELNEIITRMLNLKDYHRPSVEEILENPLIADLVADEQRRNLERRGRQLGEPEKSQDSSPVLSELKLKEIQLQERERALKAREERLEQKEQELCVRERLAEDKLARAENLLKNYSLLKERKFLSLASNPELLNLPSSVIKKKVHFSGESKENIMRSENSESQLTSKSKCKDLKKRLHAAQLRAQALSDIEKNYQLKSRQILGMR

[5] = biological target: T2, Serine/threonine-protein kinase Nek2 (Homo sapiens); assay: Inhibition of human full length NEK2 expressed in baculovirus assessed as substrate phosphorylation using fluorescence-labelled peptides as substrate at 9 uM after 90 mins by microfluidic peptide phosphorylation assay
[6] = biological target: Calcium/calmodulin-dependent protein kinase type II subunit beta (Homo sapiens) (UniProt Q13554); assay: Inhibition of human CAMK2 beta catalytic domain expressed in baculovirus assessed as substrate phosphorylation using fluorescence-labelled peptides as substrate at 9 uM after 90 mins by microfluidic peptide phosphorylation assay
Sequence of Calcium/calmodulin-dependent protein kinase type II subunit beta (Homo sapiens) (Q13554 whole entry, the tested form may be a part): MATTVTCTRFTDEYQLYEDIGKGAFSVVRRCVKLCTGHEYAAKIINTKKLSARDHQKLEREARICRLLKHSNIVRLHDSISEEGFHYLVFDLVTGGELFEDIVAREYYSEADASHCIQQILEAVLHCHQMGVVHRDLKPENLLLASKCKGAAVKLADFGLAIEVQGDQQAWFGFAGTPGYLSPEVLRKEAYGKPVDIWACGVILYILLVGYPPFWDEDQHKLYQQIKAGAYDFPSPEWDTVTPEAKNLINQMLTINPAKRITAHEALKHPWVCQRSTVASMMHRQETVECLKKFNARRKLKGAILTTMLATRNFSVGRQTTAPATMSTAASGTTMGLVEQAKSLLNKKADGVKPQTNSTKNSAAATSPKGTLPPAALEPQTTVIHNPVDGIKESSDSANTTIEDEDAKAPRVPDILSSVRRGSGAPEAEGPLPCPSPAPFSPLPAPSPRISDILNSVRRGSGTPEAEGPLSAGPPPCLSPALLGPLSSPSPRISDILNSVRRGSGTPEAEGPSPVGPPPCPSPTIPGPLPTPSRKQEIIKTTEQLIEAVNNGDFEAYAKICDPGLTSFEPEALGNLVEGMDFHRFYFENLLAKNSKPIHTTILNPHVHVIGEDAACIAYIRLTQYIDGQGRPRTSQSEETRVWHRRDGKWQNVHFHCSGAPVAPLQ

[7] = biological target: T3, Serine/threonine-protein kinase DCLK2 (Homo sapiens) (UniProt Q8N568); assay: Inhibition of human full length DCAMKL2 expressed in baculovirus assessed as substrate phosphorylation using fluorescence-labelled peptides as substrate at 2 uM after 90 mins by microfluidic peptide phosphorylation assay
T3 sequence (whole entry): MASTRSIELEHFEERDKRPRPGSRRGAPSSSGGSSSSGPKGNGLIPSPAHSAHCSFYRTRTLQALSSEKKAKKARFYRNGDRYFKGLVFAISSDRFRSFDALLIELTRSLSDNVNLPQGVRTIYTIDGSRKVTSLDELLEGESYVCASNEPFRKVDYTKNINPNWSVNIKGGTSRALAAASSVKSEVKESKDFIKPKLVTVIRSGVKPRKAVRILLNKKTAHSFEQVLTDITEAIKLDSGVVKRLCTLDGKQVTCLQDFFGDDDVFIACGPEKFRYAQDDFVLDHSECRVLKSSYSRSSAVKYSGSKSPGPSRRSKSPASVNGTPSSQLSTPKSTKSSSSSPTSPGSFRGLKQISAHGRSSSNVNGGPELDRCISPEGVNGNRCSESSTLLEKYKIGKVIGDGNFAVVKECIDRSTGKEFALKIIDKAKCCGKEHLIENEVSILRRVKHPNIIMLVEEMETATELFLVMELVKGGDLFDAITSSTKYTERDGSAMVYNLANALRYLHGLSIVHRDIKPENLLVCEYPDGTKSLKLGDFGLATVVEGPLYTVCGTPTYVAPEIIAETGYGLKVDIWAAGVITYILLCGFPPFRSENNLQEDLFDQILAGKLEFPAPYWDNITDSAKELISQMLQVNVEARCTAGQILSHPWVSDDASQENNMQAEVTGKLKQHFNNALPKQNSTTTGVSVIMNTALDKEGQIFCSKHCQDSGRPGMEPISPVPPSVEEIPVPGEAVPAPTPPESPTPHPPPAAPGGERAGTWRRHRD

[8] = biological target: Protein kinase C gamma type (Homo sapiens) (UniProt P05129); assay: Inhibition of human truncated PKC gamma expressed in baculovirus assessed as substrate phosphorylation using fluorescence-labelled peptides as substrate at 8 uM after 90 mins by microfluidic peptide phosphorylation assay
[9] = biological target: Fibroblast growth factor receptor 4 (Homo sapiens) (UniProt P22455); assay: Inhibition of human FGFR4 catalytic domain expressed in baculovirus assessed as substrate phosphorylation using fluorescence-labelled peptides as substrate at 8 uM after 90 mins by microfluidic peptide phosphorylation assay
Sequence of Fibroblast growth factor receptor 4 (Homo sapiens) (P22455 22-802 limits assumed): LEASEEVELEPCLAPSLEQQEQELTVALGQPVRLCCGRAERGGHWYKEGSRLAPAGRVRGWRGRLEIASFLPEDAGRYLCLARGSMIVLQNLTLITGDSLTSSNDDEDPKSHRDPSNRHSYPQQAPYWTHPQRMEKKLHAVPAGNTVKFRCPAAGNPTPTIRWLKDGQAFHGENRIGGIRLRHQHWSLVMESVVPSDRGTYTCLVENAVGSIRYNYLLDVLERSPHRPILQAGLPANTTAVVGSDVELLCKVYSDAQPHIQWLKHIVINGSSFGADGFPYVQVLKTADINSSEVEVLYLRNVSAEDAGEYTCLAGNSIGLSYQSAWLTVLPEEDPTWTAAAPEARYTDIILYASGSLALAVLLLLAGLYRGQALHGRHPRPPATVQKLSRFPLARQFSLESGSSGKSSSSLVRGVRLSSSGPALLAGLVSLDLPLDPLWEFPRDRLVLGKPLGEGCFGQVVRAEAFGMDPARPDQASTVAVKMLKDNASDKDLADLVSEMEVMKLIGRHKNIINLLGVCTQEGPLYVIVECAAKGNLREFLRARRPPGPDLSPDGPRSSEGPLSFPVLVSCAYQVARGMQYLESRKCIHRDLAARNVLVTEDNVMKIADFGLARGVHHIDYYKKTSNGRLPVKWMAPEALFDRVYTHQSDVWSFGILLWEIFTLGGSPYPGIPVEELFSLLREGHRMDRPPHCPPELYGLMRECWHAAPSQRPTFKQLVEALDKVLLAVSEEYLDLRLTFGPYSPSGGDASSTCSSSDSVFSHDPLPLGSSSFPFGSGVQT

[10] = biological target: Mitogen-activated protein kinase 14 (Homo sapiens) (UniProt Q16539); assay: Inhibition of human truncated p38 alpha expressed in Escherichia coli cell assessed as substrate phosphorylation using fluorescence-labelled peptides as substrate at 8 uM after 90 mins by microfluidic peptide phosphorylation assay
Sequence of Mitogen-activated protein kinase 14 (Homo sapiens) (Q16539 whole entry, the tested form may be a part): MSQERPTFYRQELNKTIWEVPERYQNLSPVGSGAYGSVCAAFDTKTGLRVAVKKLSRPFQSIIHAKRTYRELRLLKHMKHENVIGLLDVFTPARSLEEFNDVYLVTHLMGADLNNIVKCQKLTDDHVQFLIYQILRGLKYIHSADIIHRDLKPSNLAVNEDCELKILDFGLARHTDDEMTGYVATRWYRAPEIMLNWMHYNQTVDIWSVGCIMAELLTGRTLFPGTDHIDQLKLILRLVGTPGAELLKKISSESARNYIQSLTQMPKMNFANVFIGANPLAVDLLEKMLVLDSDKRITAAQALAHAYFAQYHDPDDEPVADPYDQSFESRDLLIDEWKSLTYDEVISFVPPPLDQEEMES

Homo sapiens = species on record: Homo sapiens; assay: Inhibition of human full length PKA expressed in baculovirus assessed as substrate phosphorylation using fluorescence-labelled peptides as substrate at 8 uM after 90 mins by microfluidic peptide phosphorylation assay
[11] = biological target: Calcium/calmodulin-dependent protein kinase type II subunit delta (Homo sapiens) (UniProt Q13557); conditions: 0.1 uM
Sequence of Calcium/calmodulin-dependent protein kinase type II subunit delta (Homo sapiens) (Q13557 whole entry): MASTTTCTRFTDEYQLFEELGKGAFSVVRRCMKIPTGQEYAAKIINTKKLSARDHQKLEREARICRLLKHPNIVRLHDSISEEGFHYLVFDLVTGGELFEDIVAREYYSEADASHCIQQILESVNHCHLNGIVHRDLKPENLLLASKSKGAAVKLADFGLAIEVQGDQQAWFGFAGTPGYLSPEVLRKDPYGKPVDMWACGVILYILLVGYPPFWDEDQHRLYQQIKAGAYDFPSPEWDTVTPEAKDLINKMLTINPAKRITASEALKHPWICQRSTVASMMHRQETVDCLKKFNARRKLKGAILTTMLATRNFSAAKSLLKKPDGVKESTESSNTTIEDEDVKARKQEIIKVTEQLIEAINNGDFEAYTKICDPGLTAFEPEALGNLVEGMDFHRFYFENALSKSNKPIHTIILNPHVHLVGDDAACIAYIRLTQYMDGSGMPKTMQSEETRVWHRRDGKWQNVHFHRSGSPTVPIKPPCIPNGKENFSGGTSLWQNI
Description: Inhibition of human full length CAMK2D expressed in baculovirus assessed as substrate phosphorylation using fluorescence-labelled peptides as substrate at 0.1 uM after 90 mins by microfluidic peptide phosphorylation assay

## NC1(Cc2ccc(Cl)cc2)CCN(c2ncnc3[nH]ccc23)CC1
[1]
  inhibition: 0%

## CNCc1ccc(-c2ncnc3[nH]cnc23)cc1
[2]
  inhibition: 67.5%

## Clc1ccc(C2(c3ccc(-c4ncnc5[nH]cnc45)cc3)CCNCC2)cc1
[3]
  inhibition: 5%

## c1nc(N2CCOCC2)c2nc[nH]c2n1
[4]
  inhibition: 27%

## NCC1CN(c2ncnc3[nH]c4cnccc4c23)CCO1 (configuration not stated)
[5]
  inhibition: 6%
[6]
  inhibition: 4%

## NC1CCN(c2ncnc3[nH]ccc23)CC1
[7]
  inhibition: 1.5%

## NCC1CCN(c2ncnc3[nH]ccc23)CC1
[8]
  inhibition: 86%
[9]
  inhibition: 27.5%
[10]
  inhibition: 7%
Homo sapiens
  inhibition: 29.5%

## C[C@H](CN(C)C)Oc1nc(Nc2cc3cccc(Cl)c3cn2)cnc1C#N
[11]
  inhibition: 0%
